In PMC11915372, “Identification of a Series Containing a Pentafluorophenyl Moiety That Targets Pks13 to Inhibit Growth of Mycobacterium tuberculosis” (ACS Infectious Diseases, 2025):
Converted amounts (≈) assume the structure as drawn. Where two headings read alike, the source gives them in different places.

Columns and labels:
M. tuberculosis (H37Rv) = assay: microbe, parasite or virus in culture; format: cell-based, Mycobacterium tuberculosis; details: for MIC: Mycobacterium tuberculosis, H37RV
physchem [1] = format: physicochemical
[2] = format: in vitro ADME, mouse; details: for Microsomal Cli: CD1, mouse; for Mouse micro Cl: microsomes
[3] = format: in vitro ADME, mouse; details: mouse; for Mouse Heps Cl: hepatocytes
physchem [4] = details: pH 7.4
HepG2 cells = assay: HepG2 cytotoxicity; details: Homo sapiens, HepG2, read-out: HepG2 inhibitory concentration (IC50)
Excerpt: Assays to establish HepG2 cytotoxicity, in vitro microsomal/hepatocyte metabolic stability, aqueous kinetic solubility, and in vivo pharmacokinetic profiles were all performed as previously described.[15],[35]−[37]

[5] = read-out: Wk2_7H9/DPPC/ casitone/ Tyloxapol MIC
[6] = read-out: Wk2_ 7H9/DPPC/ cholesterol/BSA/ Tyloxapol MIC
[7] = read-out: Wk2_7H9/glucose/ BSA/Tyloxapol MIC
[8] = read-out: Wk2_7H9/glucose/ casitone/ Tyloxapol MIC
[9] = pH 7.4, aqueous buffer, kinetic from dmso stock

Structure (SMILES)	MIC (M. tuberculosis (H37Rv); read-out: H37Rv MIC A) [µM]	MIC (M. tuberculosis (H37Rv); read-out: H37Rv MIC B) [µM]	MIC (M. tuberculosis (H37Rv); [5]) [µM]	MIC (M. tuberculosis (H37Rv); [6]) [µM]	MIC (M. tuberculosis (H37Rv); [7]) [µM]	MIC (M. tuberculosis (H37Rv); [8]) [µM]	loss of MIC potency (M. tuberculosis (H37Rv); relative to comparator of the series (21 vs thiophenes; 42 vs 24)) [fold]	solubility kinetic (physchem [1]; [9]) [µM]	solubility kinetic (physchem [1]; read-out: Kin. Sol) [µM]	Microsomal Cli [2] [mL/min/g]	Mouse micro Cl [2]	Hepatocyte Cli [3] [mL/min/g]	Mouse Heps Cl [3]	chromatographic logD (physchem [4])	IC50 (HepG2 cells) [µM]
Cc1nnc(-c2nc(C)oc2NC(=O)c2c(F)c(F)c(F)c(F)c2F)o1 [Compound 42, Cc1nnc(o1)-c1nc(oc1NC(=O)c1c(c(c(c(c1F)F)F)F)F)C]	2.3 (≈ 0.861 µg/mL)	6.3 (≈ 2.36 µg/mL)	2.3 (≈ 0.861 µg/mL)	6.3 (≈ 2.36 µg/mL)	4.7 (≈ 1.76 µg/mL)	2.3 (≈ 0.861 µg/mL)	10	174 (≈ 65.1 µg/mL)	174 (≈ 65.1 µg/mL)	<0.5	<0.5 mL/min/g	2.5	2.5 mL/min/g	1.1	> 100
CCOC(=O)c1nc(C)oc1NC(=O)c1c(F)cc(F)c(F)c1F [Compound 27, CCOC(=O)c1nc(oc1NC(=O)c1c(cc(c(c1F)F)F)F)C]	3.1 (≈ 1.07 µg/mL)	4.7 (≈ 1.63 µg/mL)	3.1 (≈ 1.07 µg/mL)	4.7 (≈ 1.63 µg/mL)	4.7 (≈ 1.63 µg/mL)	2.3 (≈ 0.796 µg/mL)	–	232 (≈ 80.3 µg/mL)	232 (≈ 80.3 µg/mL)	0.8	0.80 mLmin/g	3.4	3.4 mLmin/g	1.9	> 100
Cc1ncc(NC(=O)c2c(F)c(F)c(F)c(F)c2F)o1 [Compound 37, Cc1ncc(o1)NC(=O)c1c(c(c(c(c1F)F)F)F)F]	> 50	> 50	> 50	> 50	> 50	> 50	–	105 (≈ 30.7 µg/mL)	105 (≈ 30.7 µg/mL)	<0.5	<0.5 mL/min/g	5.8	5.8 mL/min/g	1.9	> 100
CCOC(=O)c1nc(C)oc1NCc1c(F)c(F)c(F)c(F)c1F [Compound 29, CCOC(=O)c1nc(oc1NCc1c(c(c(c(c1F)F)F)F)F)C]	> 50	> 50	> 50	> 50	> 50	> 50	–	23 (≈ 8.06 µg/mL)	23 (≈ 8.06 µg/mL)	32	32 mLmin/g	>50	>50 mLmin/g	3.2	> 100
CCOC(=O)c1nc(COC)oc1NC(=O)c1c(F)c(F)c(F)c(F)c1F [Compound 33, CCOC(=O)c1nc(oc1NC(=O)c1c(c(c(c(c1F)F)F)F)F)COC]	1.2 (≈ 0.473 µg/mL)	2.3 (≈ 0.907 µg/mL)	1.2 (≈ 0.473 µg/mL)	2.3 (≈ 0.907 µg/mL)	2.3 (≈ 0.907 µg/mL)	1.2 (≈ 0.473 µg/mL)	–	227 (≈ 89.5 µg/mL)	227 (≈ 89.5 µg/mL)	<0.5	<0.5 mL/min/g	7.5	7.5 mL/min/g	1.6	> 100
CCOC(=O)c1nc(C)oc1NS(=O)(=O)c1c(F)c(F)c(F)c(F)c1F [Compound 30, CCOC(=O)c1nc(oc1NS(=O)(=O)c1c(c(c(c(c1F)F)F)F)F)C]	> 50	> 50	> 50	> 50	> 50	> 50	–	171 (≈ 68.4 µg/mL)	171 (≈ 68.4 µg/mL)	0.9	0.94 mLmin/g	0.8	0.78 mLmin/g	1.4	> 100
Cc1nc(C(=O)O)c(NC(=O)c2c(F)c(F)c(F)c(F)c2F)o1 [Compound 38, Cc1nc(c(o1)NC(=O)c1c(c(c(c(c1F)F)F)F)F)C(=O)O]	> 50	> 50	5.4 (≈ 1.82 µg/mL)	> 50	43 (≈ 14.5 µg/mL)	7.7 (≈ 2.59 µg/mL)	–	250 (≈ 84 µg/mL)	250 (≈ 84 µg/mL)	<0.5	<0.5 mL/min/g	1.3	1.3 mL/min/g	0.78	> 100
CCOC(=O)c1nc(CN(C)C)oc1NC(=O)c1c(F)c(F)c(F)c(F)c1F [Compound 35, CCOC(=O)c1nc(oc1NC(=O)c1c(c(c(c(c1F)F)F)F)F)CN(C)C]	2.3 (≈ 0.937 µg/mL)	4.7 (≈ 1.91 µg/mL)	2.3 (≈ 0.937 µg/mL)	4.7 (≈ 1.91 µg/mL)	4.7 (≈ 1.91 µg/mL)	1.6 (≈ 0.652 µg/mL)	–	225 (≈ 91.6 µg/mL)	225 (≈ 91.6 µg/mL)	<0.5	<0.5 mL/min/g	4.7	4.7 mL/min/g	1.3	> 100
